Assay results from patent US9751858B2, “3-heteroaroylamino-propionic acid derivatives and their use as pharmaceuticals” (SANOFI, priority 2011, dated 2017).

Target: T1, Recombinant human cathepsin A (Homo sapiens, UniProt P10619)
T1 construct: Recombinant human cathepsin A (residues 29-480, with a C-terminal 10-His tag); 10-His (C); purchased R&D Systems 1049-SE
T1 sequence (P10619 29-326 limits assumed): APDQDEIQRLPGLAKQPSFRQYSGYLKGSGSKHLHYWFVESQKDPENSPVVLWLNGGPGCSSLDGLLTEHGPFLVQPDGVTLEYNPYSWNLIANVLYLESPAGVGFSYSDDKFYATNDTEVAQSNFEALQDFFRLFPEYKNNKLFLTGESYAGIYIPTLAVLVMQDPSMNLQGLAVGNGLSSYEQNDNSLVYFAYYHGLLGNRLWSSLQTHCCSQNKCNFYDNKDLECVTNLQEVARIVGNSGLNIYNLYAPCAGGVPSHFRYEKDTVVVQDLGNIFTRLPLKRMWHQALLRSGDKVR
T1 sequence (P10619 327-480 limits assumed): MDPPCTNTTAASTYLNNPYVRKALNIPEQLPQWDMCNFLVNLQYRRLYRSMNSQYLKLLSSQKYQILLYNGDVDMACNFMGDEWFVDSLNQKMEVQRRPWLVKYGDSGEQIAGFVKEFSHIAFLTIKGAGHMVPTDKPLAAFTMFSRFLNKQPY
Assay: Cathepsin A inhibitory activity
Type: biochemical
Details: activated recombinant human cathepsin A 833 ng/ml, Bodipy FL-labeled bradykinin 2 μM, pH 5.5, 15 min room temperature
Protocol: a) Cathepsin a Inhibitory Activity
Briefly, cathepsin A was incubated at 10 μg/ml with cathepsin L at 1 μg/ml in activation buffer (25 mM 2-(morpholin-4-yl)-ethanesulfonic acid (MES), pH 6.0, containing 5 mM dithiothreitol (DTT)) for 15 min at 37° C.
The activated cathepsin A was diluted in assay buffer (25 mM MES, pH 5.5, containing 5 mM DTT) and mixed with the test compound (dissolved in assay buffer containing (v/v) 3% DMSO) or, in the control experiments, with the vehicle in a multiple assay plate. After incubation for 15 min at room temperature, as substrate then bradykinin carrying an N-terminal ®Bodipy FL (4,4-difluoro-5,7-dimethyl-4-bora-3a,4a-diaza-s-indacene-3-propionyl) label (JPT Peptide Technologies GmbH; dissolved in assay buffer) was added to the mixture. […] After incubation for 15 min at room temperature the reaction was stopped by the addition of stop buffer (130 mM 2-(4-(2-hydroxy-ethyl)-piperazin-1-yl)-ethanesulfonic acid, pH 7.4, containing (v/v) 0.013%® Triton X-100, 0.13% Coating Reagent 3 (Caliper Life Sciences), 6.5% DMSO and 20 μM ebelactone B (Sigma, # E0886)).
Uncleaved substrate and product were then separated by a microfluidic capillary electrophoresis on a LabChip® 3000 Drug Discovery System (12-Sipper-Chip; Caliper Life Sciences) and quantified by determination of the respective peak areas. Substrate turnover was calculated by dividing product peak area by the sum of substrate and product peak areas, and the enzyme activity and the inhibitory effect of the test compound thus quantified.

| Structure (SMILES) | IC50 |
| --- | --- |
| CCCc1nc(C(=O)N[C@@H](CC(=O)O)c2ccccc2C)nn1-c1ccccc1Cl [Example 89, (S)-3-{[1-(2-Chloro-phenyl)-5-propyl-1H-[1,2,4]triazole-3-carbonyl]-amino}-3-o-tolyl-propionic acid] | 0.127 µM |
| Cc1oc(-c2ccccc2)nc1C(=O)N[C@@H](CC(=O)O)c1ccccc1F [Example 7, (S)-3-(2-Fluoro-phenyl)-3-[(5-methyl-2-phenyl-oxazole-4-carbonyl)-amino]-propionic acid] | 4.13 µM |
| Cc1ccccc1[C@H](CC(=O)O)NC(=O)c1nc(-c2ccccc2)oc1C(F)(F)F [Example 77, (S)-3-[(2-Phenyl-5-trifluoromethyl-oxazole-4-carbonyl)-amino]-3-o-tolyl-propionic acid] | 1.91 µM |
| Cc1ccccc1[C@H](CC(=O)O)NC(=O)c1nn(Cc2ccccc2)c2ccccc12 [Example 72, (S)-3-[(1-Benzyl-1H-indazole-3-carbonyl)-amino]-3-o-tolyl-propionic acid] | 0.171 µM |
| CCc1nc(C(=O)N[C@@H](CC(=O)O)c2ccc(C)cc2)nn1-c1ccccc1Cl [Example 71, (S)-3-{[1-(2-Chloro-phenyl)-5-ethyl-1H-[1,2,4]triazole-3-carbonyl]-amino}-3-p-tolyl-propionic acid] | 0.492 µM |
| CCCS(=O)(=O)Nc1cn(C)nc1C(=O)N[C@@H](CC(=O)O)c1ccccc1C [Example 64, (S)-3-{[1-Methyl-4-(propane-1-sulfonylamino)-1H-pyrazole-3-carbonyl]-amino}-3-o-tolyl-propionic acid] | > 10 µM |
| CC(C)c1oc(-c2ccccc2)nc1C(=O)N[C@@H](CC(=O)O)c1ccccc1Cl [Example 67, (S)-3-(2-Chloro-phenyl)-3-[(5-isopropyl-2-phenyl-oxazole-4-carbonyl)-amino]-propionic acid] | 1.4 µM |
| O=C(O)C[C@H](NC(=O)c1nc(-c2ccccc2)oc1C(F)(F)F)c1cccc(F)c1 [Example 79, (S)-3-(3-Fluoro-phenyl)-3-[(2-phenyl-5-trifluoromethyl-oxazole-4-carbonyl)-amino]-propionic acid] | > 10 µM |
| O=C(O)C[C@H](NC(=O)c1nc(-c2ccccc2)n(-c2ccccc2)n1)c1ccccc1Cl [Example 106, (S)-3-(2-Chloro-phenyl)-3-[(1,5-diphenyl-1H-[1,2,4]triazole-3-carbonyl)-amino]-propionic acid] | 0.119 µM |
| COc1ccc([C@H](CC(=O)O)NC(=O)CCc2nc(-c3ccccc3F)no2)cc1 [Example 73, (S)-3-{3-[3-(2-Fluoro-phenyl)-[1,2,4]oxadiazol-5-yl]-propionylamino}-3-(4-methoxy-phenyl)-propionic acid] | > 10 µM |
| CC(C)c1oc(-c2ccccc2)nc1C(=O)NC(CC(=O)O)C1CCCCC1 (stereo not drawn) [Example 34, 3-Cyclohexyl-3-[(5-isopropyl-2-phenyl-oxazole-4-carbonyl)-amino]-propionic acid] | 1.47 µM |
| Cc1oc(-c2ccccc2)nc1C(=O)N[C@@H](CC(=O)O)c1ccccc1C(F)(F)F [Example 78, (S)-3-[(5-Methyl-2-phenyl-oxazole-4-carbonyl)-amino]-3-(2-trifluoromethyl-phenyl)-propionic acid] | 8.47 µM |
| O=C(O)C[C@H](NC(=O)CCc1nc(-c2ccccc2F)no1)c1ccc(C(F)(F)F)cc1 [Example 111, (S)-3-{3-[3-(2-Fluoro-phenyl)-[1,2,4]oxadiazol-5-yl]-propionylamino}-3-(4-trifluoromethyl-phenyl)-propionic acid] | > 10 µM |
| O=C(O)C[C@H](NC(=O)c1nc(-c2ccccc2)oc1C(F)(F)F)c1cccc(Cl)c1Cl [Example 122, (S)-3-(2,3-Dichloro-phenyl)-3-[(2-phenyl-5-trifluoromethyl-oxazole-4-carbonyl)-amino]-propionic acid] | 1.95 µM |
| O=C(O)CC(NC(=O)c1nc(-c2ccccc2)oc1C(F)(F)F)C1CCCCC1 (stereo not drawn) [Example 68, 3-Cyclohexyl-3-[(2-phenyl-5-trifluoromethyl-oxazole-4-carbonyl)-amino]-propionic acid] | 14.8 µM |
| O=C(O)C[C@H](NC(=O)c1nc(-c2ccccc2)n(-c2ccccc2)n1)c1ccc(F)cc1 [Example 91, (S)-3-[(1,5-Diphenyl-1H-[1,2,4]triazole-3-carbonyl)-amino]-3-(4-fluoro-phenyl)-propionic acid] | 0.517 µM |
| Cc1ccccc1[C@H](CC(=O)O)NC(=O)c1nc(C2CC2)n(-c2ccccc2Cl)n1 [Example 82, (S)-3-{[1-(2-Chloro-phenyl)-5-cyclopropyl-1H-[1,2,4]triazole-3-carbonyl]-amino}-3-o-tolyl-propionic acid] | > 10 µM |
| O=C(O)C[C@H](NC(=O)c1noc(-c2cccc(F)c2F)n1)c1ccc(F)cc1 [Example 44, (S)-3-{[5-(2,3-Difluoro-phenyl)-[1,2,4]oxadiazole-3-carbonyl]-amino}-3-(4-fluoro-phenyl)-propionic acid] | 5.33 µM |
| O=C(O)C[C@H](NC(=O)CCc1nc(-c2ccccc2F)no1)c1cccc(F)c1 [Example 60, (S)-3-(3-Fluoro-phenyl)-3-{3-[3-(2-fluoro-phenyl)-[1,2,4]oxadiazol-5-yl]-propionylamino}-propionic acid] | 22.4 µM |
| Cc1oc(-c2ccccc2F)nc1C(=O)N[C@@H](CC(=O)O)c1ccc(F)cc1 [Example 37, (S)-3-(4-Fluoro-phenyl)-3-{[2-(2-fluoro-phenyl)-5-methyl-oxazole-4-carbonyl]-amino}-propionic acid] | 4.2 µM |
| O=C(O)C[C@H](NC(=O)c1noc(-c2cccc(F)c2F)n1)c1ccccc1C(F)(F)F [Example 101, (S)-3-{[5-(2,3-Difluoro-phenyl)-[1,2,4]oxadiazole-3-carbonyl]-amino}-3-(2-trifluoromethyl-phenyl)-propionic acid] | > 10 µM |
| Cc1ccccc1[C@H](CC(=O)O)NC(=O)c1nn(C)cc1NS(=O)(=O)CC1CCCCC1 [Example 119, (S)-3-[(4-Cyclohexylmethanesulfonylamino-1-methyl-1H-pyrazole-3-carbonyl)-amino]-3-o-tolyl-propionic acid] | > 10 µM |
| O=C(O)C[C@H](NC(=O)c1nc(-c2ccccc2)n(-c2ccccc2)n1)c1cccc(Cl)c1Cl [Example 124, (S)-3-(2,3-Dichloro-phenyl)-3-[(1,5-diphenyl-1H-[1,2,4]triazole-3-carbonyl)-amino]-propionic acid] | 0.0509 µM |
| O=C(O)C[C@H](NC(=O)c1nc(-c2ccccc2)oc1C(F)(F)F)c1cccc(Cl)c1 [Example 96, (S)-3-(3-Chloro-phenyl)-3-[(2-phenyl-5-trifluoromethyl-oxazole-4-carbonyl)-amino]-propionic acid] | 10.3 µM |
| Cc1oc(-c2ccccc2)nc1C(=O)N[C@@H](CC(=O)O)c1cccc(Cl)c1 [Example 28, (S)-3-(3-Chloro-phenyl)-3-[(5-methyl-2-phenyl-oxazole-4-carbonyl)-amino]-propionic acid] | 1.11 µM |
| Cc1ccccc1[C@H](CC(=O)O)NC(=O)c1cc(-c2ccc(Cl)cc2)on1 [Example 26, (S)-3-{[5-(4-Chloro-phenyl)-isoxazole-3-carbonyl]amino}-3-o-tolyl-propionic acid] | > 10 µM |
| Cc1ccccc1[C@H](CC(=O)O)NC(=O)c1noc(-c2cccc(F)c2F)n1 [Example 42, (S)-3-{[5-(2,3-Difluoro-phenyl)-[1,2,4]oxadiazole-3-carbonyl]-amino}-3-o-tolyl-propionic acid] | > 10 µM |
